Strand notation (5' to 3'): a small letter for the sugar, then the base; units joined by * are phosphorothioate-linked, units joined directly phosphodiester-linked; [ ] holds rarer units or linkages, { } end groups; capitals alone tell only the bases. k = constrained ethyl (cEt); [5mC] = 5-methylcytosine; d = 2'-deoxy (DNA)
System: Yap1 mRNA
Test: Antisense inhibition of human Yap1 in A-431 cells by cEt gapmers, single dose (Example 1, RTS4814)
Assay type: cell-based
Summary of the method: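 Free uptake of 2,000 nM 3-10-3 cEt gapmer (16-mer, full phosphorothioate, 5-methylcytosines) in A-431 cells for ~48 h. Yap1 mRNA quantified by qRT-PCR with set RTS4814, normalized to total RNA (RiboGreen), and expressed as % of untreated control; asterisked values target the amplicon region.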

[1] = A-431 cells, 5,000 cells per well, free uptake, 2,000 nM modified oligonucleotide, approx. 48 hours, RTS4814, normalized to RIBOGREEN, Table 3
[2] = Table 2, A-431 cells, free uptake, 2,000 nM, approximately 48 hours, RTS4814, Yap1 mRNA relative to untreated control cells
[3] = Table 1, A-431 cells, free uptake, 2,000 nM, approximately 48 hours, RTS4814, Yap1 mRNA relative to untreated control cells

Row | Substance | YAP1 (% UTC) [1] [% UTC] | YAP1 (% UTC) [2] [% UTC] | other results
1 | 715624 (antisense kT*kG*k[5mC]*d[5mC]*dT*dA*dA*dG*dA*dG*dT*dA*dA*kA*kA*kA) [Compound 715624] | 123 |  | 
2 | 715543 (kA*k[5mC]*kT*dA*d[5mC]*dT*dT*dG*dA*dA*dG*dA*dA*k[5mC]*kT*kA; antisense) [Compound 715543] | 72 |  | 
3 | 715579 (k[5mC]*kT*kG*dT*d[5mC]*dT*dG*dG*dA*dA*dT*dA*d[5mC]*kA*k[5mC]*kA; antisense) [Compound 715579] | 100 |  | 
4 | 715417 (kG*kA*kG*d[5mC]*dT*d[5mC]*dG*dA*dA*d[5mC]*dA*dT*dG*k[5mC]*kT*kG; antisense) [Compound 715417] | 104 |  | 
5 | 715420 (kG*kA*kT*dT*dT*dA*dA*dG*dA*dA*dG*dT*dA*kT*k[5mC]*kT; antisense) [Compound 715420] | 107 |  | 
6 | 715620 (antisense kA*kA*kA*dA*dA*dT*dA*dA*dG*dA*d[5mC]*dG*dG*kA*kT*kA) [Compound 715620] |  | 111 | 
7 | 715463 (antisense k[5mC]*kT*kG*dT*dA*dG*d[5mC]*dT*dG*d[5mC]*dT*d[5mC]*dA*kT*kG*k[5mC]) [Compound 715463] |  |  | YAP1 (% UTC) [3]: 73 % UTC
8 | 715490 (antisense k[5mC]*k[5mC]*kA*dA*d[5mC]*dT*dA*dT*dT*dA*d[5mC]*dT*dT*k[5mC]*kA*kT) [Compound 715490] |  |  | YAP1 (% UTC) [3]: 38 % UTC
9 | 715431 (k[5mC]*k[5mC]*kA*dT*d[5mC]*d[5mC]*dT*dG*dA*dG*dT*d[5mC]*dA*kT*kG*kG; antisense) [Compound 715431] |  | 99 | 
10 | 715631 (antisense kA*kT*kA*dA*dG*dA*dG*d[5mC]*d[5mC]*dT*dA*d[5mC]*d[5mC]*kT*kG*kA) [Compound 715631] |  |  | YAP1 (% UTC) [3]: 134 % UTC
11 | 715406 (k[5mC]*kT*kT*dG*dA*dA*dG*dA*dA*dG*dG*dA*dG*kT*k[5mC]*kG; antisense) [Compound 715406] |  |  | YAP1 (% UTC) [3]: 58 % UTC
12 | 715618 (antisense kA*kT*kA*dA*dG*dA*d[5mC]*dG*dG*dA*dT*dA*dA*kA*kA*kA) [Compound 715618] | 101 |  | 
13 | 715457 (antisense kA*kG*kA*dG*dT*dG*dA*dT*dA*dG*dG*dT*dG*k[5mC]*k[5mC]*kA) [Compound 715457] |  |  | YAP1 (% UTC) [3]: 47 % UTC
14 | 715570 (kG*k[5mC]*k[5mC]*dA*dA*dA*dG*dG*dT*dA*dG*dG*dA*kT*kA*kA; antisense) [Compound 715570] | 79 |  | 
15 | 715626 (antisense kA*k[5mC]*k[5mC]*dT*dG*dA*d[5mC]*dA*dT*dT*dT*dT*dG*kG*kA*kG) [Compound 715626] |  | 64 | 
16 | 715461 (antisense kT*k[5mC]*kA*dT*d[5mC]*dT*d[5mC]*dG*dA*dG*dA*dG*dT*kG*kA*kT) [Compound 715461] |  | 153 | 
17 | 715575 (k[5mC]*k[5mC]*kT*dT*dT*dA*d[5mC]*d[5mC]*dA*dA*dA*dA*d[5mC]*kG*kA*kG; antisense) [Compound 715575] |  | 134 | 
18 | 715413 (k[5mC]*kA*kT*dG*d[5mC]*dT*dG*dT*dG*dG*dA*dG*dT*k[5mC]*kA*kG; antisense) [Compound 715413] |  | 96 | 
19 | 715494 (antisense kG*kA*kG*dG*dT*dG*d[5mC]*dT*dA*dG*d[5mC]*dT*dG*kG*kT*kG) [Compound 715494] |  | 46 | 
20 | 715567 (kG*kG*kT*dA*dG*dG*dA*dT*dA*dA*dA*dT*dG*kA*kA*kT; antisense) [Compound 715567] | 99 |  | 
21 | 715436 (antisense kT*kG*kG*d[5mC]*dA*dA*dA*dA*d[5mC]*dG*dA*dG*dG*kG*kT*k[5mC]) [Compound 715436] |  |  | YAP1 (% UTC) [3]: 126 % UTC

From patent publication US11214803B2, “Modulators of YAP1 expression” (Ionis Pharmaceuticals, Inc., priority 2019, dated 2022)
